Experimental data as given in paper PMC2813863, “In Vivo Evaluation of α7 Nicotinic Acetylcholine Receptor Agonists [^11C]A-582941 and [^11C]A-844606 in Mice and Conscious Monkeys” (PLoS ONE, 2010).
“And” between values parts separate entries of the source, which are not always exact repeats. Equal values may be shown once. Read-outs that look alike come from different tables or passages of the source.

Legend:
α4β2 [1] = details: read-out: K i α4β2; cited from earlier work
α4β2 [2] = details: read-out: K i α4β2; cited from earlier work; remark: listed apart in the source
α7 nAChRs [3] = molecular target: α7 nAChRs (Mus musculus, UniProt P49582); details: in vivo
Procedure: In the other group of mice, a blocking experiment to determine the α7 nAChRs-specific regional brain uptake of the tracers was carried out. Each tracer (2 MBq/0.055–0.096 nmol) was co-injected with each of the following blockers into mice, and 15 ([^11C]A-582941) or 30 ([^11C]A-844606) min later the mice were killed (n = 5) and the tissue uptake of ^11C was expressed as the %ID/g. […] Each blocker was dissolved in 1N HCl to 40 mg/ml and diluted up to 0.4 mg/ml with saline. The co-injected dose was 1 mg/kg. In the control mice the same amount of 0.01 N HCl in saline was co-injected.

α7 nAChRs [4] = details: read-out: KD for α-bungarotoxin; cited from earlier work
α7 nAChRs [5] = details: read-out: IC50, displacement of [^3H]MLA binding; cited from earlier work
α4β2 nAChRs = details: read-out: IC50, displacement of [^3H]cytisine binding to α4β2 nAChRs; cited from earlier work

α7 nAChRs (Mus musculus, UniProt P49582), sequence (P49582 23-502): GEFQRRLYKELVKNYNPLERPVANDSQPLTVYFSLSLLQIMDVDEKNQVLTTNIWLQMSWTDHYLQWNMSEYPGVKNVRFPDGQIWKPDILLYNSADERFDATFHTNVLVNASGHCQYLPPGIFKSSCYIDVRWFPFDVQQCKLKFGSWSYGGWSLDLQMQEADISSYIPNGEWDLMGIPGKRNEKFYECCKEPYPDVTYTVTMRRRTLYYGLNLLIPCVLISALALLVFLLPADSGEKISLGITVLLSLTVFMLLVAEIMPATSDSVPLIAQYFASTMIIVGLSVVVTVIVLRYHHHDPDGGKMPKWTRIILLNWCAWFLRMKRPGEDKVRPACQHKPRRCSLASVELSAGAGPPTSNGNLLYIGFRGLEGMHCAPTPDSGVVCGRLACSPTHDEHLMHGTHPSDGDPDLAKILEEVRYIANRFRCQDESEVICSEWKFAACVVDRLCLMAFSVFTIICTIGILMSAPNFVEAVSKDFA

Row | Compound | Ki (α4β2 [1]) [nM] | Ki (α4β2 [2]) [nM] | % Injected dose/g tissue, Blood (α7 nAChRs [3]) | % Injected dose/g tissue, Cerebellum (α7 nAChRs [3]) | % Injected dose/g tissue, Cerebral cortex (α7 nAChRs [3]) | % Injected dose/g tissue, Hippocampus (α7 nAChRs [3]) | % Injected dose/g tissue, Hypothalamus (α7 nAChRs [3]) | % Injected dose/g tissue, Medulla oblongata (α7 nAChRs [3]) | % Injected dose/g tissue, Midbrain (α7 nAChRs [3]) | % Injected dose/g tissue, Striatum (α7 nAChRs [3]) | % Injected dose/g tissue, Whole brain (α7 nAChRs [3]) | Kd (α7 nAChRs [4]) [nM] | IC50 (α7 nAChRs [5]) [nM] | IC50 (α4β2 nAChRs) [nM]
1 | c1cncc(OC[C@@H]2CCN2)c1 [A-85380, 3-(2(S)-azetidynilmethoxy)pyridine] | 0.05 | 0.04 | 0.85±0.06 % Injected dose/g tissue and 0.54±0.12 % Injected dose/g tissue | 3.76±0.50 % Injected dose/g tissue and 6.22±1.26 % Injected dose/g tissue | 4.53±0.61 % Injected dose/g tissue and 7.57±1.48 % Injected dose/g tissue | 3.92±0.54 % Injected dose/g tissue and 5.58±1.26 % Injected dose/g tissue | 3.97±0.65 % Injected dose/g tissue and 5.00±0.96 % Injected dose/g tissue | 3.99±0.49 % Injected dose/g tissue and 5.46±1.15 % Injected dose/g tissue | 4.52±0.68 % Injected dose/g tissue and 6.84±1.71 % Injected dose/g tissue | 4.33±0.75 % Injected dose/g tissue and 6.47±1.38 % Injected dose/g tissue | 4.26±0.57 % Injected dose/g tissue and 6.64±1.33 % Injected dose/g tissue |  |  | 
2 | α-bungarotoxin |  |  |  |  |  |  |  |  |  |  |  | 1.67 |  | 
3 | CN1CC2CN(c3ccc4oc5ccccc5c(=O)c4c3)CC2C1 (centres unmarked) [A-844606, 2-(5-methyl-hexahydro-pyrrolo[3,4-c]pyrrol-2-yl)-xanthene-9-one] |  |  | 0.91±0.10 % Injected dose/g tissue | 3.62±0.10 % Injected dose/g tissue | 4.78±0.19 % Injected dose/g tissue | 4.20±0.55 % Injected dose/g tissue | 3.50±0.87 % Injected dose/g tissue | 4.04±0.19 % Injected dose/g tissue | 4.29±0.11 % Injected dose/g tissue | 3.94±0.89 % Injected dose/g tissue | 4.27±0.18 % Injected dose/g tissue |  | 11 | > 30000
